# Measurements: US20040058056A1, “Drug diffusion coatings, applications and methods” (priority 2003, published 2004)
# Columns and labels:
# Assay type in all cases: physicochemical
# [1] = Elution of rapamycin from TMCTS plasma-coated stainless steel coupons in porcine serum
# Protocol: The elution time of rapamycin from the surface of stainless steel coupons was evaluated as a function of plasma deposition time. One side of stainless steel coupons was coated with 100±10 μg of rapamycin dissolved in chloroform (0.2%, w/v). After air drying at room temperature, the coated surfaces were plasma coated with TMCTS. The plasma was generated at 83 W and 55 mTorr with a mass flow rate of 84 sccm at various time lengths between 30 and 300 seconds. The coated coupons were extracted with porcine serum mixed with 0.02% NaN3 as the preservative at 37° C. The remaining amounts of the drug on the coupon was extracted with 2 ml of methanol for 2 hours at room temperature and assayed by HPLC at 277 nm, utilizing an HPLC system calibrated with known amounts of rapamycin.
# [2] = Elution of daunomycin from PHEMA-coated stainless steel coupons with TMCTS plasma membrane; details: buffered saline pH 7.4; absorbance at 480 nm; different TMCTS plasma deposition times
# Protocol: Before drug application and plasma coating to 0.71 cm×0.71 cm 316 stainless steel coupon surfaces, all the coupons were cleaned with Acationox detergent, rinsed exhaustively with water, and air-dried. The coupons were then dip-coated in 80% ethanol containing 5% PHEMA and 5 mg/ml of daunomycin. After dipping, the coupons were wicked to remove excess solution, and air-dried under a gentle flow of warm air. Thereafter, the coated coupons were stored in the dark. The drug-coated coupons were then plasma-deposited with TMCTS for varying amounts of time. The plasma was generated at 83 W and 55 mTorr with a mass flow rate of 84 sccm of TMCTS monomer vapor. The coating thickness could be precisely controlled by plasma deposition time, with a coating thickness in the range of 5 to 200 nm.
# The coupons were eluted in buffered saline at pH 7.4. The eluted drug was measured spectrophotometrically at 480 nm for daunomycin. The absorbance change was proportional to the concentration of daunomycin.
# [3] = Elution of NPC-15199 from PHEMA-coated stainless steel coupons with TMCTS plasma membrane; details: buffered saline pH 7.4, room temperature
# Protocol: N-(9-fluorenylmethoxycarbonyl)-L-leucine (NPC-15199), an anti-inflammatory drug, was coated on a stainless steel coupon by dip-coating the coupon in a mixture of 20 mM NPC-15199 in a 60:40 solution of acetone:water containing 7.5% poly(2-hydroxyethyl methacrylate) (“PHEMA”). The coupon was then air dried for about 5 minutes at approximately 60° C. TMCTS plasma was deposited on different NPC-15199 coated coupons for 20, 40, 60 and 80 seconds, respectively. […] at pH 7.4 at room temperature. Elution of NPC-15199 was measured by change in absorbance using a spectrophotometer.
# The plasma was generated at 83 W and 55 mTorr with a mass flow rate of 84 sccm; under these conditions a micro-thin siloxane membrane is deposited on the targeted surface, with the thickness directly related to the length of time of plasma deposition.
structure (smiles),measurement,setting,value
CO[C@H]1C[C@@H]2CC[C@@H](C)[C@@](O)(O2)C(=O)C(=O)N2CCCC[C@H]2C(=O)O[C@H]([C@H](C)C[C@@H]2CC[C@@H](O)[C@H](OC)C2)CC(=O)[C@H](C)/C=C(\C)[C@@H](O)[C@@H](OC)C(=O)[C@H](C)C[C@H](C)/C=C/C=C/C=C/1C [rapamycin],% Remaining,"[1]; 0 (uncoated) TMCTS deposition, elution time 0 hours",100%
same,% Remaining,"[1]; 0 (uncoated) TMCTS deposition, elution time 17 hours, porcine serum 37° C.",0%
same,% Remaining,"[1]; TMCTS deposition 30 seconds, elution time 64 hours, porcine serum 37° C.",2.6%
same,Estimated Half-Life,"[1]; TMCTS deposition 30 seconds, porcine serum 37° C.",12 h
same,% Remaining,"[1]; TMCTS deposition 60 seconds, elution time 64 hours, porcine serum 37° C.",33.2%
same,Estimated Half-Life,"[1]; TMCTS deposition 60 seconds, porcine serum 37° C.",41 h
same,% Remaining,"[1]; TMCTS deposition 120 seconds, elution time 47.5 hours, porcine serum 37° C.",67.7%
same,Estimated Half-Life,"[1]; TMCTS deposition 120 seconds, porcine serum 37° C.",84 h
same,% Remaining,"[1]; TMCTS deposition 180 seconds, elution time 24 hours, porcine serum 37° C.",76.3%
same,Estimated Half-Life,"[1]; TMCTS deposition 180 seconds, porcine serum 37° C.",94 h
same,% Remaining,"[1]; TMCTS deposition 240 seconds, elution time 24 hours, porcine serum 37° C.",93.6%
same,Estimated Half-Life,"[1]; TMCTS deposition 240 seconds, porcine serum 37° C.",211 h
same,% Remaining,"[1]; TMCTS deposition 300 seconds, elution time 47.5 hours, porcine serum 37° C.",91.9%
same,Estimated Half-Life,"[1]; TMCTS deposition 300 seconds, porcine serum 37° C.",360 h
COc1cccc2c1C(=O)c1c(O)c3c(c(O)c1C2=O)C[C@@](O)(C(C)=O)C[C@@H]3O[C@H]1C[C@H](N)[C@H](O)[C@H](C)O1 [daunomycin],drug diffusion time,[2],controlled by the TMCTS coating thickness
"CC(C)C[C@H](NC(=O)OCC1c2ccccc2-c2ccccc21)C(=O)O [NPC-15199, N-(9-fluorenylmethoxycarbonyl)-L-leucine]",T1/2 (half-elution time),[3]; TMCTS plasma deposition time 20 seconds,0.833 min
same,T1/2 (half-elution time),[3]; TMCTS plasma deposition time 40 seconds,1.67 min
same,T1/2 (half-elution time),[3]; TMCTS plasma deposition time 60 seconds,2.5 min
same,T1/2 (half-elution time),[3]; TMCTS plasma deposition time 80 seconds,4 min
